Common to all, as to format: functional
The test system of one assay is UACC-257. The assay is described as follows: Growth inhibition of human UACC257 cells assessed as cell growth at 0.05 uM incubated for 48 hrs by sulforhodamine B assay relative to control. Particulars: UACC-257, 48 h, read-out: Activity.
Another assay has as its system 786-0. The assay is described as follows: Growth inhibition of human 786-0 cells assessed as cell growth at 50 uM incubated for 48 hrs by sulforhodamine B assay relative to control. Particulars: 786-0, 48 h, read-out: Activity. Background: The SRB assay estimates cell density from bound dye.
In a further assay the test system is PC-3. The assay is described as follows: Growth inhibition of human PC3 cells assessed as cell growth at 0.005 uM incubated for 48 hrs by sulforhodamine B assay relative to control. The following applies: PC-3, 48 h, read-out: Activity.

Turning to `COc1cc2cc(Oc3ccc(NC(=O)Nc4cccc(C(F)(F)F)c4)cc3)c(C)nc2cc1OC`, in the assay with UACC-257, the growth at 0.05 µM was 94%. The growth at 50 µM in the assay on 786-0 is -33%. Also, the growth at 0.005 µM with PC-3 stood at 94%.

These data come from ChEMBL document CHEMBL3994622, “Design and synthesis of new RAF kinase-inhibiting antiproliferative quinoline derivatives. Part 2: Diarylurea derivatives” (Eur J Med Chem, 2017).
